The series in a line: Photostability of oily Parsol 1789/block copolymer mixture as a thin coat on a glass plate, xenon lamp irradiation, absorption spectrophotometry. Format: physicochemical. To be noted: mixture with Tegomer SE-1010; thin coat about 10 microns on glass plate, in presence of oxygen; UV-A 22 J/cm^2, 20 minutes. The protocol: The Parsol® 1789 was dispersed in the Tegomer SE-1010 with heating at 40° C. for 60 minutes. The mixture was allowed to cool to room temperature. The oily mixture was ready for use.
The oily mixture was evaluated in the form of a thin coat of about 10 microns deposited on a glass plate (microscope slide), in the presence of oxygen.
An irradiation was then performed, using an Ostram-Centra Uvimeter equipped with a xenon lamp, under the following conditions: • Energy of the UV-A lamp: 22 J/cm^2 • Irradiation time of the simulator=20 minutes
These conditions correspond to about one hour of solar UV-A sunshine.
The photodegradation was monitored by absorption spectrophotometry. The following results were obtained: • 1) The mixture was able to form a film and the quality of the film was not impaired by the irradiation. • 2) 100% of the Parsol® 1789 was recovered after this exposure.

Regarding `COc1ccc(C(=O)CC(=O)c2ccc(C(C)(C)C)cc2)cc1` [Parsol® 1789, 4-(tert-butyl)-4′-methoxydibenzoylmethane], the “Parsol 1789 recovered after exposure” value came to 100%.

The values are drawn from patent US7153494B2, “Dibenzoylmethane sunscreen compositions photostabilized with amphiphilic block copolymers” (L'Oreal, priority 2002, dated 2006).
